Results reported in patent publication US6106866A, “In vivo agents comprising cationic drugs, peptides and metal chelators with acidic saccharides and glycosaminoglycans, giving improved site-selective localization, uptake mechanism, sensitivity and kinetic-spatial profiles, including tumor sites” (Access Pharmaceuticals, Inc., priority 1995, dated 2000).
Blank lines part the entries; values can stand above or below the molecule they belong to. No end group written: not given here. *: point of attachment. For = O=C*

Columns and labels:
[1] = Binding of active to dermatan sulfate carrier (dialysis retention, 500 MW cutoff); conditions: for paired-ion binding of peptide to dermatan sulfate: ca. 60:40 (active to dermatan sulfate)
Protocol: Multiple batches of Ferrioxamine:Dermatan Sulfate Agent have been prepared.
Vincristine (Sigma Chemical Co., St. Louis) is dissolved in water and mixed with dermatan sulfate at ratios of between 90:10 and 30:70 (w/w) drug to dermatan sulfate.
Amikacin, gentamicin and tobramycin (all obtained from Sigma Chemical Co., St. Louis) are dissolved in water and mixed with either dermatan sulfate (435 Type) or beef lung heparin (Hepar-Kabi-Pharmacia) at ratios of between 90:10 and 30:70 (w/w) drug to glycosaminoglycan.

[2] = Binding of complexes to heparin or sucrose octasulfate (dialysis, UV-Visible titration, solubilization)
Protocol: UV-Visible spectrophotometric titration indicates maximum binding occurs at a molar ratio of 18:1 (iron-porphine:heparin).
(a) To this resulting aqueous dispersion of complex is added beef lung heparin, to give final complex-to-heparin ratios of between 95:5 and 5:95 (by weight). […] This apparent solubilization is indicative of paired-ion binding between triethylenetetraamine-iron and heparin.
(b) To the aqueous dispersion of triethylenetetraamine-iron complex is added sucrose octasulfate (SOS), to give final complex-to-SOS ratios of between 95:5 and 5:95 (by weight).

Molecule: CC[C@]1(O)C[C@H]2CN(CCc3c([nH]c4ccccc34)[C@@](C(=O)OC)(c3cc4c(cc3OC)N(C=O)[C@H]3[C@@](O)(C(=O)OC)[C@H](OC(C)=O)[C@]5(CC)C=CCN6CC[C@]43[C@@H]65)C2)C1 [Vincristine]
retention inside 500 MW cutoff dialysis bag [1]: not the drug alone

Molecule: N-formyl-met-leu-phe-lys (For-MLFK) [basic white-cell chemoattractant peptide, formulated with dermatan sulfate]
paired-ion binding of peptide to dermatan sulfate [1]: Strong paired-ion binding | fluorescence on binding to dermatan sulfate ([1]; emission 518 nm, excitation 257 nm): fluorescence enhancement

Molecule: arg-pro-pro-gly-phe-ser-pro-phe-arg (RPPGFSPFR; formulated with dermatan sulfate) [arginine bradykinin, basic peptide, formulated with dermatan sulfate]
paired-ion binding of peptide to dermatan sulfate [1]: Strong paired-ion binding

Binding of iron-porphine to heparin [2]: ~100% | dialysis of iron-porphine alone [2]: nearly completely dialyzed | molar ratio at maximum binding (iron-porphine:heparin) [2]: 18:1
Molecule: 5,10,15,20-tetrakis(1-methyl-4-pyridyl)-21H-23H-porphine [iron-porphine]
